Molecular target: T1, MUS81/EME1 (Homo sapiens, UniProt Q96NY9)
T1 sequence (Q96NY9 1-551): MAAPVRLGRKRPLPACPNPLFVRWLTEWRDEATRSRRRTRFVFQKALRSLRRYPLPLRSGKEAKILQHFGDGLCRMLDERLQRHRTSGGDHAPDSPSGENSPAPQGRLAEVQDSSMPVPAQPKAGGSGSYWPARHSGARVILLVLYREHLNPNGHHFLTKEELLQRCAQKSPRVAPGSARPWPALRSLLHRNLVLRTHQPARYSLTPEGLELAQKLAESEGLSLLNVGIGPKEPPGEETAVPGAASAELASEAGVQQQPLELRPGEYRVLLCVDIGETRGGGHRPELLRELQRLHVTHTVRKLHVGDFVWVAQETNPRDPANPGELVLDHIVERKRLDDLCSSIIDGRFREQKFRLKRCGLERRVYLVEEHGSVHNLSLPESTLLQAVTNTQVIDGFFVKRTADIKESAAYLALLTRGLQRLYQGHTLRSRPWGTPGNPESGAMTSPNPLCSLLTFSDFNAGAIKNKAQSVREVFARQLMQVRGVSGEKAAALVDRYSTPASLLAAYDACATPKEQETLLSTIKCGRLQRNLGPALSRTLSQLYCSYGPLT
T1 sequence (Q96AY2 1-570 partner): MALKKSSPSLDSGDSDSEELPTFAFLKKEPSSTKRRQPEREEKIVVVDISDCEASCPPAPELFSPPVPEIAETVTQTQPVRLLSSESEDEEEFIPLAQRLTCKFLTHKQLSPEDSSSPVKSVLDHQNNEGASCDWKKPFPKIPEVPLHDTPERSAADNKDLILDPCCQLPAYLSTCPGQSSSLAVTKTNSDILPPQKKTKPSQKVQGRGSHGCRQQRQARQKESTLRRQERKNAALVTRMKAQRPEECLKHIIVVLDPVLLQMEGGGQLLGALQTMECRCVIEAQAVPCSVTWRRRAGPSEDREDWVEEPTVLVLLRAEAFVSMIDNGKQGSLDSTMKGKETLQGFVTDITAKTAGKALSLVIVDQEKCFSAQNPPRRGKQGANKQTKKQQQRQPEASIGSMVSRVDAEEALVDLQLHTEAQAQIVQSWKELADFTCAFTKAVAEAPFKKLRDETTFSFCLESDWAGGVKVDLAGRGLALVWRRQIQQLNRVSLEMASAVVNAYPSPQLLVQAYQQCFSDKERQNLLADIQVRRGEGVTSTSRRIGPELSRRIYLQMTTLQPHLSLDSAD
Experiment: Nuclease inhibition assay, MUS81/EME1 (3′ flap fluorescent DNA substrate, gel readout)
Format: biochemical
Conditions: 5 nM enzyme, 5 nM 3′ flap substrate, 15 min at 30° C.
Description: In vitro assays were used for the determination of compound's IC50 values for inhibition of individual nucleases, i.e., MUS81/EME1, FEN1, EXO1, and MRE11. To generate IC50 values, concentration of compound was plotted against relative nuclease activity (in %). The dose-response curves were generated from inhibition data, from 5 point serial dilutions of inhibitory compounds, each in triplicate and fitted to a standard sigmoid curve. IC50 values were derived by standard nonlinear regression analysis.
All tested compounds were diluted in 100% DMSO (dimethylsulfoxide) to prepare working stocks with different concentrations. To keep the DMSO concentration constant in every reaction, always 0.5 μl of the compound stock was added to the reaction buffer. The reaction buffer differs depending on the enzyme tested. Also concentration of the compounds in the reaction depends on the particular enzyme, since the inhibitory effect of the compounds vary between the enzymes. Nevertheless, always doubling dilutions in the range 200-0.8 μM was used. The compound was added as the first component in the reaction buffer, followed by the enzyme addition. Short (15 minutes) pre-incubation step followed before the reaction was initiated by addition of DNA substrate (5 nM).
As a negative control, DNA substrate specific for each particular enzyme without the addition of the enzyme and the compound was used. The positive control contained all components of the reaction, except the compound of interest. However, to compensate for solvent effects, DMSO (at a final concentration of 2.5%) was included in the reaction.
For this experiment we prepared short fluorescently labeled oligonucleotide-based DNA substrates with specific structures reflecting the biochemical activities of tested individual nucleases (Table 1). These substrates were prepared by annealing of synthetic oligonucleotides purchased from VBC Biotech. Composition of each substrate is indicated below the table; the corresponding oligonucleotides were combined in equimolar ratios. For visualization, each substrate was labeled by fluorescent dye (fluorescein), which can be detected in the gel using appropriate imaging system (FLA-9000, Fuji) with filters for particular wavelengths (excitation: 485 nm, emission: 535 nm).
Nuclease assays were performed in reaction buffer specific for particular enzyme: MUS81/EME1 (50 mM Tris pH=7.5, 5 mM MgCl2, 1 mM DTT a 100 μg/ml BSA), MRE11 (30 mM Bis-Tris pH=7.0, 50 μg/ml BSA, 1 mM DTT a 250 μM MnCl2), EXO1 and FEN1 (50 mM Tris pH=7.5, 1 mM MgCl2, 1 mM DTT a 100 μg/ml BSA). The individual reactions were prepared by mixing with highly purified enzyme (MUS81/EME1 (5 nM), MRE11 (5 nM), EXO1 (5 nM) or FEN1 (10 nM); purification protocols described below), and different concentration of inhibitor (mentioned above) in corresponding reaction buffer. The final volume of the reaction was 20 μl. After short pre-incubation (15 minutes at room temperature), the reaction was initiated by addition of 5 nM of corresponding fluorescently labeled DNA substrate (3′ flap for MUS81/EME1, 5′ flap for MRE11 and FEN1, 3′ OH for EXO1; see FIG. 1) and incubated for 15 minutes at 30° C. Next, the reaction was stopped and deproteinized by addition of 2 μl of stop buffer, containing 0.1% SDS and 500 μg/ml proteinase K, and incubated for additional 5 minutes at 30° C. Then the loading dye, containing glycerol (60% glycerol, 10 mM Tris pH=7.4, 60 mM EDTA a 0.1% Orange G), was added to each reaction ( 1/10 of the reaction volume), and the whole mixture was subjected to electrophoresis in 10% polyacrylamide native gel (110 V, 40 min, 1× TBE). Fluorescently labeled DNA was detected by FLA-9000 scanner (Fuji) and the result was evaluated using Multi-Gauge V3.2 software (Fuji).
The Mus81/Eme1 expression construct was a kind gift from Dr. Steve West (Cancer Research UK). Briefly, the nuclease complex was purified as follows. […]

Nc1c(-c2nc3ccccc3[nH]2)nnc2cc(-c3cccc4ccccc34)nn12 [Preparative Example 5K]
IC50: < 10 µM

Nc1c(-c2nc3ccccc3[nH]2)nnc2cc(-c3ccccc3)nn12 [Preparative Example 5C]
IC50: < 50 µM

CCc1nn2c(N)c(-c3nc4ccccc4[nH]3)nnc2c1-c1ccc(F)cc1 [Preparative Example 5A]
IC50: < 10 µM
